# Test results published in publication PMC10008561 (Nature Communications, 2023).
# Several values for one entry are separate records, joined by “and”; a condition that tells them apart may be missing. Equal values may be shown once. Read-outs that look alike come from different tables or passages of the source.
# How the values were obtained:
# Test in all cases: cell-based
# human KOR (Gi2) [1] = molecular target: T1, human KOR (Gi2) (Homo sapiens, UniProt P41145)
# T1 construct: expressed in transfected cells; host or cells: HEK293T
# T1 sequence (P41145 whole entry): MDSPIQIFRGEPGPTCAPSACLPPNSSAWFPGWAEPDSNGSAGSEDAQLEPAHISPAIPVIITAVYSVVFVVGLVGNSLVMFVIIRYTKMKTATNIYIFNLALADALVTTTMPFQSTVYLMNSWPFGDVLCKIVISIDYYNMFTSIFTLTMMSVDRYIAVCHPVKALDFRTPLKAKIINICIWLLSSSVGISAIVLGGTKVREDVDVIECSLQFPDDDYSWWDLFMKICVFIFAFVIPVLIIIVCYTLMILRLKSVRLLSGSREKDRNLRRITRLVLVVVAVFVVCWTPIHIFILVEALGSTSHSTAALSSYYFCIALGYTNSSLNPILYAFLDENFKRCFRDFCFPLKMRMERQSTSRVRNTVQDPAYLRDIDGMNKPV
# human KOR (Gi2) [2] = molecular target: T2, human KOR (Gi2) (Homo sapiens, UniProt P41145, D105A); conditions: HEK-293T
# T2 construct: expressed in transfected cells; host or cells: HEK293T
# T2 sequence (P41145 whole entry D105A): as the sequence (P41145 whole entry) above, with D105A counted along it
# human KOR (Gi2) [3] = molecular target: T3, human KOR (Gi2) (Homo sapiens, UniProt P41145, D155A)
# T3 construct: expressed in transfected cells; host or cells: HEK293T
# T3 sequence (P41145 whole entry D155A): as the sequence (P41145 whole entry) above, with D155A counted along it
# human KOR (Gi2) [4] = molecular target: T4, human KOR (Gi2) (Homo sapiens, UniProt P41145, D266A)
# T4 construct: expressed in transfected cells; host or cells: HEK293T
# T4 sequence (P41145 whole entry D266A): as the sequence (P41145 whole entry) above, with D266A counted along it
# human KOR (Gi2) [5] = molecular target: T5, human KOR (Gi2) (Homo sapiens, UniProt P41145, D334A)
# T5 construct: expressed in transfected cells; host or cells: HEK293T
# T5 sequence (P41145 whole entry D334A): as the sequence (P41145 whole entry) above, with D334A counted along it
# human KOR (Gi2) [6] = molecular target: T6, human KOR (Gi2) (Homo sapiens, UniProt P41145, E297A)
# T6 construct: expressed in transfected cells; host or cells: HEK293T
# T6 sequence (P41145 whole entry E297A): as the sequence (P41145 whole entry) above, with E297A counted along it
# human KOR (Gi2) [7] = molecular target: T7, human KOR (Gi2) (Homo sapiens, UniProt P41145, F114L)
# T7 construct: expressed in transfected cells; host or cells: HEK293T
# T7 sequence (P41145 whole entry F114L): as the sequence (P41145 whole entry) above, with F114L counted along it
# human KOR (Gi2) [8] = molecular target: T8, human KOR (Gi2) (Homo sapiens, UniProt P41145, F283A)
# T8 construct: expressed in transfected cells; host or cells: HEK293T
# T8 sequence (P41145 whole entry F283A): as the sequence (P41145 whole entry) above, with F283A counted along it
# human KOR (Gi2) [9] = molecular target: T9, human KOR (Gi2) (Homo sapiens, UniProt P41145, N322A)
# T9 construct: expressed in transfected cells; host or cells: HEK293T
# T9 sequence (P41145 whole entry N322A): as the sequence (P41145 whole entry) above, with N322A counted along it
# human KOR (Gi2) [10] = molecular target: T10, human KOR (Gi2) (Homo sapiens, UniProt P41145, N326A)
# T10 construct: expressed in transfected cells; host or cells: HEK293T
# T10 sequence (P41145 whole entry N326A): as the sequence (P41145 whole entry) above, with N326A counted along it
# human KOR (Gi2) [11] = molecular target: T11, human KOR (Gi2) (Homo sapiens, UniProt P41145, Q115N)
# T11 construct: expressed in transfected cells; host or cells: HEK293T
# T11 sequence (P41145 whole entry Q115N): as the sequence (P41145 whole entry) above, with Q115N counted along it
# human KOR (Gi2) [12] = molecular target: T12, human KOR (Gi2) (Homo sapiens, UniProt P41145, R257A)
# T12 construct: expressed in transfected cells; host or cells: HEK293T
# T12 sequence (P41145 whole entry R257A): as the sequence (P41145 whole entry) above, with R257A counted along it
# human KOR (Gi2) [13] = molecular target: T13, human KOR (Gi2) (Homo sapiens, UniProt P41145, T94V)
# T13 construct: expressed in transfected cells; host or cells: HEK293T
# T13 sequence (P41145 whole entry T94V): as the sequence (P41145 whole entry) above, with T94V counted along it
# human KOR (GoB) [14] = molecular target: T14, human KOR (GoB) (Homo sapiens, UniProt P41145)
# T14 construct: expressed in transfected cells; host or cells: HEK293T
# T14 sequence (P41145 whole entry): as the sequence (P41145 whole entry) above
# human KOR (GoB) [15] = molecular target: T15, human KOR (GoB) (Homo sapiens, UniProt P41145, D105A); conditions: HEK-293T
# T15 construct: expressed in transfected cells; host or cells: HEK293T
# T15 sequence (P41145 whole entry D105A): as the sequence (P41145 whole entry) above, with D105A counted along it
# human KOR (GoB) [16] = molecular target: T16, human KOR (GoB) (Homo sapiens, UniProt P41145, D155A); conditions: HEK-293T
# T16 construct: expressed in transfected cells; host or cells: HEK293T
# T16 sequence (P41145 whole entry D155A): as the sequence (P41145 whole entry) above, with D155A counted along it
# human KOR (GoB) [17] = molecular target: T17, human KOR (GoB) (Homo sapiens, UniProt P41145, D334A); conditions: HEK-293T
# T17 construct: expressed in transfected cells; host or cells: HEK293T
# T17 sequence (P41145 whole entry D334A): as the sequence (P41145 whole entry) above, with D334A counted along it
# human KOR (GoB) [18] = molecular target: T18, human KOR (GoB) (Homo sapiens, UniProt P41145, E297A); conditions: HEK-293T
# T18 construct: expressed in transfected cells; host or cells: HEK293T
# T18 sequence (P41145 whole entry E297A): as the sequence (P41145 whole entry) above, with E297A counted along it
# human KOR (GoB) [19] = molecular target: T19, human KOR (GoB) (Homo sapiens, UniProt P41145, F114L); conditions: HEK-293T
# T19 construct: expressed in transfected cells; host or cells: HEK293T
# T19 sequence (P41145 whole entry F114L): as the sequence (P41145 whole entry) above, with F114L counted along it
# human KOR (GoB) [20] = molecular target: T20, human KOR (GoB) (Homo sapiens, UniProt P41145, F283A); conditions: HEK-293T
# T20 construct: expressed in transfected cells; host or cells: HEK293T
# T20 sequence (P41145 whole entry F283A): as the sequence (P41145 whole entry) above, with F283A counted along it
# human KOR (GoB) [21] = molecular target: T21, human KOR (GoB) (Homo sapiens, UniProt P41145, G319L); conditions: HEK-293T
# T21 construct: expressed in transfected cells; host or cells: HEK293T
# T21 sequence (P41145 whole entry G319L): as the sequence (P41145 whole entry) above, with G319L counted along it
# human KOR (GoB) [22] = molecular target: T22, human KOR (GoB) (Homo sapiens, UniProt P41145, K200A); conditions: HEK-293T
# T22 construct: expressed in transfected cells; host or cells: HEK293T
# T22 sequence (P41145 whole entry K200A): as the sequence (P41145 whole entry) above, with K200A counted along it
# human KOR (GoB) [23] = molecular target: T23, human KOR (GoB) (Homo sapiens, UniProt P41145, K227A); conditions: HEK-293T
# T23 construct: expressed in transfected cells; host or cells: HEK293T
# T23 sequence (P41145 whole entry K227A): as the sequence (P41145 whole entry) above, with K227A counted along it
# human KOR (GoB) [24] = molecular target: T24, human KOR (GoB) (Homo sapiens, UniProt P41145, L253A); conditions: HEK-293T
# T24 construct: expressed in transfected cells; host or cells: HEK293T
# T24 sequence (P41145 whole entry L253A): as the sequence (P41145 whole entry) above, with L253A counted along it
# human KOR (GoB) [25] = molecular target: T25, human KOR (GoB) (Homo sapiens, UniProt P41145, N141A); conditions: HEK-293T
# T25 construct: expressed in transfected cells; host or cells: HEK293T
# T25 sequence (P41145 whole entry N141A): as the sequence (P41145 whole entry) above, with N141A counted along it
# human KOR (GoB) [26] = molecular target: T26, human KOR (GoB) (Homo sapiens, UniProt P41145, N322A); conditions: HEK-293T
# T26 construct: expressed in transfected cells; host or cells: HEK293T
# T26 sequence (P41145 whole entry N322A): as the sequence (P41145 whole entry) above, with N322A counted along it
# human KOR (GoB) [27] = molecular target: T27, human KOR (GoB) (Homo sapiens, UniProt P41145, N326A); conditions: HEK-293T
# T27 construct: expressed in transfected cells; host or cells: HEK293T
# T27 sequence (P41145 whole entry N326A): as the sequence (P41145 whole entry) above, with N326A counted along it
# human KOR (GoB) [28] = molecular target: T28, human KOR (GoB) (Homo sapiens, UniProt P41145, Q115N); conditions: HEK-293T
# T28 construct: expressed in transfected cells; host or cells: HEK293T
# T28 sequence (P41145 whole entry Q115N): as the sequence (P41145 whole entry) above, with Q115N counted along it
# human KOR (GoB) [29] = molecular target: T29, human KOR (GoB) (Homo sapiens, UniProt P41145, R170A); conditions: HEK-293T
# T29 construct: expressed in transfected cells; host or cells: HEK293T
# T29 sequence (P41145 whole entry R170A): as the sequence (P41145 whole entry) above, with R170A counted along it
# human KOR (GoB) [30] = molecular target: T30, human KOR (GoB) (Homo sapiens, UniProt P41145, R257A); conditions: HEK-293T
# T30 construct: expressed in transfected cells; host or cells: HEK293T
# T30 sequence (P41145 whole entry R257A): as the sequence (P41145 whole entry) above, with R257A counted along it
# human KOR (GoB) [31] = molecular target: T31, human KOR (GoB) (Homo sapiens, UniProt P41145, R274A); conditions: HEK-293T
# T31 construct: expressed in transfected cells; host or cells: HEK293T
# T31 sequence (P41145 whole entry R274A): as the sequence (P41145 whole entry) above, with R274A counted along it
# human KOR (GoB) [32] = molecular target: T32, human KOR (GoB) (Homo sapiens, UniProt P41145, T94V); conditions: HEK-293T
# T32 construct: expressed in transfected cells; host or cells: HEK293T
# T32 sequence (P41145 whole entry T94V): as the sequence (P41145 whole entry) above, with T94V counted along it
# human KOR (GoB) [33] = molecular target: T33, human KOR (GoB) (Homo sapiens, UniProt P41145, Y320L); conditions: HEK-293T
# T33 construct: expressed in transfected cells; host or cells: HEK293T
# T33 sequence (P41145 whole entry Y320L): as the sequence (P41145 whole entry) above, with Y320L counted along it
# KOR Q115N = KOR Q115N (Homo sapiens, UniProt P41145, Q115N); set-up: TEV cleavage site (C); tTA transcription factor (C); expressed in transfected cells; host or cells: HTLA cells; conditions: read-out: Tango response (Figure S4C), KOR Q115N, Log [Drug], replicate values
# Sequence of KOR Q115N (P41145 whole entry Q115N): as the sequence (P41145 whole entry) above, with Q115N counted along it
# Sequence of KOR Q115N (P32121 whole entry partner): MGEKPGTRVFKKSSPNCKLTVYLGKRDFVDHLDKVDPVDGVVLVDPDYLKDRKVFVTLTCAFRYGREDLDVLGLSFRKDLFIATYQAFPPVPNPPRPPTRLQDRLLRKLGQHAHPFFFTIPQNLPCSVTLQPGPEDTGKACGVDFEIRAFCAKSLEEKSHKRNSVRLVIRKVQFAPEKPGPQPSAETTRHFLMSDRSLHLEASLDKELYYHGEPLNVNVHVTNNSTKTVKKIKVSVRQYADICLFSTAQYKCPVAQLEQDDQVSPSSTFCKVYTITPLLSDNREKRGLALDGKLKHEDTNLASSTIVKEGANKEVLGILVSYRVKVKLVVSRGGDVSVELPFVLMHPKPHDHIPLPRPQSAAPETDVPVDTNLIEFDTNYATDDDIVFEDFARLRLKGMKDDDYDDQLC
compound,measurement,setting,value
"CN(C(=O)/C=C/c1ccoc1)[C@@H]1CC[C@@]2(O)[C@H]3Cc4ccc(O)c5c4[C@@]2(CCN3CC2CC2)[C@H]1O5 [Nalfurafine, nalfurafine]",Emax%,human KOR (Gi2) [1],101%
same,FC vs wild type,human KOR (Gi2) [1],1
same,Emax,human KOR (Gi2) [1]; HEK-293T,101%
same,Emax,human KOR (Gi2) [2],96.1%
same,FC vs wild type,human KOR (Gi2) [3],20 and < 10
same,Emax,human KOR (Gi2) [3]; HEK-293T,82%
same,FC vs wild type,human KOR (Gi2) [4],110
same,Emax,human KOR (Gi2) [4]; HEK-293T,107%
same,FC vs wild type,human KOR (Gi2) [5],269
same,Emax,human KOR (Gi2) [5]; HEK-293T,86.1%
same,FC vs wild type,human KOR (Gi2) [6],2
same,Emax,human KOR (Gi2) [6]; HEK-293T,106%
same,FC vs wild type,human KOR (Gi2) [7],18
same,Emax,human KOR (Gi2) [7]; HEK-293T,56.9%
same,FC vs wild type,human KOR (Gi2) [8],7
same,Emax,human KOR (Gi2) [8]; HEK-293T,79%
same,FC vs wild type,human KOR (Gi2) [9],178
same,Emax,human KOR (Gi2) [9]; HEK-293T,77.2%
same,FC vs wild type,human KOR (Gi2) [10],3
same,Emax,human KOR (Gi2) [10]; HEK-293T,101%
same,FC vs wild type,human KOR (Gi2) [11],24
same,Emax,human KOR (Gi2) [11]; HEK-293T,60%
same,FC vs wild type,human KOR (Gi2) [12],100
same,Emax,human KOR (Gi2) [12]; HEK-293T,104%
same,FC vs wild type,human KOR (Gi2) [13],2
same,Emax,human KOR (Gi2) [13]; HEK-293T,95.8%
same,Emax%,human KOR (GoB) [14],99.55%
same,Emax,human KOR (GoB) [14]; HEK-293T,99.8%
same,Emax,human KOR (GoB) [15],91%
same,Emax,human KOR (GoB) [16],99%
same,Emax,human KOR (GoB) [17],91.1%
same,Emax,human KOR (GoB) [18],103%
same,Emax,human KOR (GoB) [19],77.5%
same,Emax,human KOR (GoB) [20],91%
same,Emax,human KOR (GoB) [21],108%
same,Emax,human KOR (GoB) [22],98.3%
same,Emax,human KOR (GoB) [23],94.3%
same,Emax,human KOR (GoB) [24],107%
same,Emax,human KOR (GoB) [25],98.7%
same,Emax,human KOR (GoB) [26],87.1%
same,Emax,human KOR (GoB) [27],93.6%
same,Emax,human KOR (GoB) [28],80.5%
same,Emax,human KOR (GoB) [29],87.8%
same,Emax,human KOR (GoB) [30],99.6%
same,Emax,human KOR (GoB) [31],101%
same,Emax,human KOR (GoB) [32],100%
same,Emax,human KOR (GoB) [33],76%
same,activation at 10 µM,KOR Q115N; M -5,106%
same,activation at […],KOR Q115N; M -6.5,92.3%
same,activation at 0.1 µM,KOR Q115N; M -7,92.6%
same,activation at […],KOR Q115N; M -7.5,76.8%
same,activation at 0.01 µM,KOR Q115N; M -8,80.2%
same,activation at […],KOR Q115N; M -8.5,39%
